According to US5380729A, “12-hetero substituted 6,11-ethano-6,11-dihydrobenzo (b) quinolizinium salts and compositions and method of use thereof” (Sterling Winthrop Inc., priority 1993, dated 1995):

Molecular target: PCP recognition sites
Assay: [3H]TCP Radioreceptor Assay (internal screen)
Assay type: binding, rat (male Sprague-Dawley
Settings: rat whole brain membranes, room temperature, 25 min; for Ki: ~1 nM [3H]TCP
Description: [^3 H]TCP Radioreceptor Assay (internal screen)
[^3 H]TCP binding to PCP recognition sites was performed as described by Vignon et al. Brain Research 1983, 280, 194°197. Male Sprague-Dawley rats were sacrificed by decapitation, and whole brains were homogenized in 10 volumes (wt/vol) of cold Tris-HCl buffer (50 mM, pH 7.7) using a Brinkmann Polytron (setting 6, 30 sec). The homogenate was centrifuged at 40,000×g for 10 min at 4° C. The supernatant was decanted, and the homogenization and centrifugation steps were repeated twice as described above. Following this, the pellet was resuspended in Tris-HCl (5 mM, pH 7.7) at a tissue concentration of 0.5°0.75 g/ml, and one ml aliquots were frozen at -70° C. until use. The binding characteristics for PCP recognition sites were not altered by the freezing of membrane suspensions.
On the day of the assay, membrane aliquots were thawed, resuspended in fresh 5 mM Tris-HCl buffer at a tissue concentration of 1 mg/ml, and stored on ice until use. Each assay tube contained 100 μl of [^3 H]TCP at a final concentration of approximately 1 nM, 100 μl of various concentrations of the compounds of interest, 500 μl of the tissue suspension and 300 of buffer to a final assay volume of 1 ml and a final protein concentration of 0.5 mg/tube. Non-specific binding was defined by addition of a final concentration of 100 μM PCP to blank tubes. All tubes were incubated at room temperature for 25 min before termination of the reaction by rapid filtration over Whatman GF/B glass fiber filters that had been presoaked in a solution of 0.5% polyethylenimine for at least 1 hr prior to use. Filters were washed with three 4 ml volumes of cold Tris buffer. Following addition of scintillation cocktail, the amount of bound radioactivity was determined by liquid scintillation spectrometry using a Beckman LS 5000TA liquid scintillation counter with an efficiency for tritium of approximately 55% . Inhibition constants (Ki values) were calculated using the EBDA/LIGAND program (McPherson, J. Pharmacol. Meth. 1985, 14, 213-228), purchased from Elsevier/Biosoft, Inc. Results are reported as Ki values or as a percent (%) inhibition of binding at 10

Compound	Ki	other results
12,12-Diethylamino-13-phenyl-6,11-ethano-6,11-dihydrobenzo[b]quinolizinium perchlorate [63(j)]	14400 nM	–
CCOC1(OCC)C2c3ccccc3C([n+]3ccccc32)C1(C)C (single isomer, unassigned) [7(b), 12,12-diethoxy-13,13-dimethyl-6,11-ethano-6,11-dihydrobenzo[b]quinolizinium·-[(-)-DBT]]	14.1 nM	–
CCOC1(OCC)C2c3cc(OC)ccc3C([n+]3ccccc32)C1(C)C (single isomer, unassigned) [20(c), 9-methoxy-12,12-diethoxy-13,13-dimethyl-6,11-ethano-6,11-dihydrobenzo[b]quinolizinium chloride]	7.05 nM	–
C[C@@H]1C[C@@H](C)OC2(O1)C1c3ccccc3C([n+]3ccccc31)C2(C)C (single isomer, unassigned) [Example 10(b)]	614 nM	–
C[C@@H]1C[C@@H](C)OC2(O1)C1c3ccccc3C([n+]3ccccc31)C2(C)C (single isomer, unassigned) [Example 10(c)]	365 nM	–
CCOC1(OCC)C2c3ccccc3C(C1Cl)[n+]1ccccc12 (single isomer, unassigned) [Example 42, 6,11-ethano-12,12-diethoxy-13-chloroquinolizinium perchlorate]	319 nM	–
CCOC1C2c3ccccc3C([n+]3ccccc32)C1(C)C (single isomer, unassigned) [Example 49, 6,11-ethano-12-ethoxy-13,13-dimethyl-6,11-dihydrorbenzo[b]quinolizinium perchlorate]	515 nM	–
CCN(CC)C1C2c3ccccc3C(C1C)[n+]1ccccc12 (single isomer, unassigned) [Example 61, 6,11-ethano-12-(diethyl) amino-13-methyl-6,11-dihydrobenzo[b]quinolizinium diperchlorate]	5420 nM	–
CCOC1(OCC)C2c3c(OC(C)=O)cccc3C([n+]3ccccc32)C1(C)C.[O-][Cl+3]([O-])([O-])[O-] (stereo not drawn) [15(a), 10-acetoxy-12,12-diethoxy-13,13-dimethyl-6,11-ethano-6,11-dihydrobenzo[b]quinolizinium perchlorate]	26.4 nM	–
CCOC1(OCC)C2c3c(O)cccc3C([n+]3ccccc32)C1(C)C.[O-][Cl+3]([O-])([O-])[O-] (stereo not drawn) [15(b), 10-hydroxy-12,12-diethoxy-13,13-dimethyl-6,11-ethano-6,11-dihydrobenzo[b]quinolizinium perchlorate]	7.87 nM	–
CCOC1(OCC)C2c3c(O)cccc3C([n+]3ccccc32)C1(C)C (stereo not drawn) [15(c), 10-hydroxy-12,12-diethoxy-13,13-dimethyl-6,11-ethano-6,11-dihydrobenzo[b]quinolizinium chloride]	6.9 nM	–
CCOC1(OCC)C2c3ccccc3C([n+]3ccccc32)C1(CC)CC (stereo not drawn) [17(c), 12,12-diethoxy-13,13-diethyl-6,11-ethano-6,11-dihydrobenzo[b]quinoliziniumperchlorate]	10.6 nM	–
CCOC1(OCC)C2c3c(OC)cccc3C([n+]3ccccc32)C1(C)C (stereo not drawn) [19(b), 10-methoxy-12,12-diethoxy-13-13-dimethyl-6,11-ethano-6,11-dihydrobenzo[b]quinolizinium perchlorate]	13.2 nM	–
CC1(C)C2c3ccccc3C(c3cccc[n+]32)C12OCCCO2 (stereo not drawn) [22(b), 6,11-ethano-12,12-(1,3-propanediolketal)-13,13-dimethyl-6,11-dihydrobenzo[b]quinolizinium chloride]	3300 nM	–
CCOC1(OCC)C2c3cc(C(F)(F)F)ccc3C([n+]3ccccc32)C1(C)C (stereo not drawn) [23(b), 6,11-ethano-12,12-diethoxy-13,13-dimethyl-9-trifluoromethyl-6,11-dihydrobenzo[b]quinolizinium chloride]	407 nM	–
CCOC1(OCC)C2c3c(F)cc(F)cc3C([n+]3ccccc32)C1(C)C (stereo not drawn) [24(b), 6,11-ethano-12,12-diethoxy-13,13-dimethyl-8,10-difluoro-6,11-dihydrobenzo-[b]quinolizinium chloride]	272 nM	–
CCOC1(OCC)C2c3ccc(OC)cc3C([n+]3ccccc32)C1(C)C (stereo not drawn) [25(b), 6,11-ethano-12,12-diethoxy-13,13-dimethyl-8-methoxy-6,11-dihydrobenzo[b]quinolizinium chloride]	147 nM	–

Compound	Ki	other results
CCOC1(OCC)C2c3ccccc3C([n+]3c(C)cccc32)C1(C)C (stereo not drawn) [27(b), 6,11-ethano-12,12-diethoxy-13,13-dimethyl-4-methyl-6,11-dihydrobenzo[b]quinolizinium chloride]	314 nM	–
CCOC1(OCC)C2c3c(OC(C)C)cccc3C([n+]3ccccc32)C1(C)C (stereo not drawn) [34(b), 6,11-ethano-12,12-diethoxy-13,13-dimethyl-10-isopropoxy-6,11-dihydrobenzo[b]quinolizinium chloride]	47.5 nM	–
CCOC1(OCC)CC2c3ccccc3C1c1cccc[n+]12 (stereo not drawn) [63(a), 12,12-Diethoxy-6,11-ethano-6,11-dihydrobenzo[b]quinolizinium bromide]	3590 nM	–
CCOC1(OCC)C2c3ccccc3C(C1C)[n+]1ccccc12.[O-][Cl+3]([O-])([O-])[O-] (stereo not drawn) [63(d), 12,12-Diethoxy-13-methyl-6,11-ethano-6,11-dihydrobenzo[b]quinolizinium perchlorate]	49.3 nM	–
CCOC1(OCC)C2c3cccc(C)c3C(C1C)[n+]1ccccc12.[O-][Cl+3]([O-])([O-])[O-] (stereo not drawn) [63(k), 7-Methyl-12,12-diethoxy-13-methyl-6,11-ethano-6,11-dihydrobenzo[b]quinolizinium perchlorate]	2460 nM	–
CCOC1(OCC)C(C)C2c3ccccc3C1(C)c1cccc[n+]12.[O-][Cl+3]([O-])([O-])[O-] (stereo not drawn) [63(l), 11-Methyl-12,12-diethoxy-13-methyl-6,11-ethano-6,11-dihydrobenzo[b]quinolizinium perchlorate]	39.3 nM	–
COC1(OC)C2c3ccccc3C([n+]3ccccc32)C1(C)C.[O-][Cl+3]([O-])([O-])[O-] (stereo not drawn) [63(m), 12,12-dimethoxy-13,13-dimethyl-6,11-ethano-6,11-dihydrobenzo[b]quinolizinium perchlorate]	111 nM	–
CCOC1(OCC)C2c3ccccc3C([n+]3ccccc32)C1(C)C (stereo not drawn) [Example 3, 12,12-diethoxy-13,13-dimethyl-6,11-ethano-6,11-dihydrobenzo[b]quinolizinium hexafluorophosphate]	5.56 nM	–
CCOC1(OCC)C2c3ccccc3C([n+]3ccccc32)C1(C)C (stereo not drawn) [Example 4, 12,12-diethoxy-13,13-dimethyl-6,11-ethano-6,11-dihydrobenzo[b]quinolizinium camphanate]	5.66 nM	–
CCOC1(OCC)C2c3ccccc3C([n+]3ccccc32)C1(C)C [Example 5, 12,12-diethoxy-13,13-dimethyl-6,11-ethano-6,11-dihydrobenzo[b]quinolizinium (S)-(+)-CH3 C(Ph)(OH)CO2^-]	5.25 nM	–
CCOC1(OCC)C2c3ccccc3C([n+]3ccccc32)C1(OCC)OCC (stereo not drawn) [Example 8, 12,12,13,13,-tetraethoxy-6,11-ethane-6,11-dihydrobenzo[b]quinolizinium perchlorate]	5180 nM	–
CC1(C)C2c3ccccc3C(c3cccc[n+]32)C12O[C@H](COCc1ccccc1)[C@@H](COCc1ccccc1)O2 (stereo partly drawn) [Example 9, 12,12-(1R,2R-dibenzyloxymethyl-ethanediolketal)-13,13-dimethyl-6,11-ethano-6,11-dihydrobenzo[b]quinolizinium perchlorate]	–	Percent inhibition, [3H]TCP (internal screen) (@ 10 μM): 11%
C[C@@H]1C[C@@H](C)OC2(O1)C1c3ccccc3C([n+]3ccccc31)C2(C)C (stereo partly drawn) [Example 11, 12,12-(2R,4R-pentanediolketal)-13,13-dimethyl-6,11-ethano-6,11-dihydrobenzo[b]-quinolizinium chloride·1/2 hydrate]	–	Ki (hydrate): 497 nM
CCOC1(OCC)C2c3cccc(OC)c3C([n+]3ccccc32)C1(C)C (stereo not drawn) [Example 16, 7-methoxy-12,12-diethoxy-13,13-dimethyl-6,11-ethano-6,11-dihydrobenzo[b]quinolizinium hexafluorophosphate]	1870 nM	–
CC1(C)C2c3ccccc3C(c3cccc[n+]32)C12OCCO2 (stereo not drawn) [Example 18, 12,..12-(1; 2-ethanediolketal)-13,13-dimethyl-6,11-ethano-6,11-dihydrobenzo[b]quinolizinium perchlorate]	4000 nM	–
CCOC1(OCC)C2c3cc(Cl)ccc3C([n+]3ccccc32)C1(C)C.[O-][Cl+3]([O-])([O-])[O-] (stereo not drawn) [Example 26, 6,11-ethano-12,12-diethoxy-13,13-dimethyl-9-chloro-6,11-dihydrobenzo[b]quinolizinium perchlorate]	12.4 nM	–
